Measurements taken from patent US20240150356A1, “Pyrimidine amide compounds and use thereof” (ALPHALA CO., LTD., priority 2019, published 2024).
Read-outs that look alike come from different tables or passages of the source.

Tested on: Hep3B cells (hepatocellular carcinoma cell line)
Assay: In vitro MTS cell viability assay (NCI-60 methodology), Hep3B
Assay type: cell-based
Details: Homo sapiens, 48 h, 2 days drug incubation, 50% reduction vs time zero, read-out: Hep3B LC50
Procedure, shortened: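 Following NCI-60 method, MTS viability of Hep3B measured 24 h after plating (time zero) and after a further 2-day exposure to five concentrations (2-fold series). LC50 defined where [(Ti−Tz)/Tz]×100 = −50.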

Question: `CCOCCOCCOc1ccc(-c2nc(NC(=O)c3ccc([N+](=O)[O-])s3)c3cnn(-c4ccc(C(F)(F)F)cn4)c3n2)cn1` [Compound 7-7, N-(6-(6-(2-(2-ethoxyethoxy)ethoxy)pyridin-3-yl)-1-(5-(trifluoromethyl)pyridin-2-yl)-1H-pyrazolo[3,4-d]pyrimidin-4-yl)-5-nitrothiophene-2-carboxamide] was tested. Which LC50 (Table 7, MTS) did it give?
Answer: 500 nM

Question: For `COCCN(C)c1ccc(-c2nc(NC(=O)c3ccc([N+](=O)[O-])s3)c3cnn(-c4cccc(F)c4)c3n2)cn1` [Compound 6-93], which LC50 (Table 6, MTS) is on record?
Answer: 400 nM

Question: With `O=C(Nc1nc(Oc2ccc(F)cc2)nc2c1cnn2-c1ccccc1)c1ccc([N+](=O)[O-])s1` [Compound 5-14, N-(6-(4-fluorophenoxy)-1-phenyl-1H-pyrazolo[3,4-d]pyrimidin-4-yl)-5-nitrothiophene-2-carboxamide] as the compound, how does the LC50 (Table 5, MTS) read?
Answer: > 5000 nM

Question: With `Cc1ccc(-n2ncc3c(NC(=O)c4ccc([N+](=O)[O-])s4)nc(-c4ccc5c(c4)OCCO5)nc32)cc1` [Compound 6-10, N-(6-(2,3-dihydrobenzo[b][1,4]dioxin-6-yl)-1-(p-tolyl)-1H-pyrazolo[3,4-d]pyrimidin-4-yl)-5-nitrothiophene-2-carboxamide] as the compound, how does the LC50 (Table 6, MTS) read?
Answer: 620 nM

Question: With `COCCOc1ccc(-c2nc(NC(=O)c3ccc([N+](=O)[O-])s3)c3cnn(-c4ccccc4)c3n2)cn1` [Compound 5-54, N-(6-(6(2-methoxyethoxy)pyridin-3-yl)-1-phenyl-1H-pyrazolo[3,4-d]pyrimidin-4-yl)-5-nitrothiophene-2-carboxamide] as the compound, how does the LC50 (Table 5, MTS) read?
Answer: 340 nM

Question: For `CC(C)(C)c1ccc(-n2ncc3c(NC(=O)c4ccc([N+](=O)[O-])s4)nc(N4CCC[C@H]4C(=O)O)nc32)cc1` [Compound 6-70, (1-(4-(tert-butyl)phenyl)-4-(5-nitrothiophene-2-carboxamido)-1H-pyrazolo[3,4-d]pyrimidin-6-yl)-L-proline], which LC50 (Table 6, MTS) is on record?
Answer: > 1250 nM

Question: For `CC1(C)CCC(n2ncc3c(NC(=O)c4ccc([N+](=O)[O-])s4)nc(-c4ccc5c(c4)OCO5)nc32)CC1` [Compound 10-66, N-(6-(benzo[d][1,3]dioxol-5-yl)-1-(4,4-dimethylcyclohexyl)-1H-pyrazolo[3,4-d]pyrimidin-4-yl)-5-nitrothiophene-2-carboxamide], which LC50 (Table 10, MTS) is on record?
Answer: 610 nM

Question: `Cc1csc2c(NC(=O)c3ccc([N+](=O)[O-])s3)nc(-c3ccc(C(C)(C)C)cc3)nc12` [Compound 4-1] was tested. Which LC50 (Table 4, MTS) did it give?
Answer: 1150 nM

Question: With `Cc1ccn(-c2nc(NC(=O)c3ccc([N+](=O)[O-])s3)c3cnn(-c4ccc(Cl)cc4)c3n2)n1` [Compound 6-46, N-(1-(4-chlorophenyl)-6-(3-methyl-1H-pyrazol-1-yl)-1H-pyrazolo[3,4-d]pyrimidin-4-yl)-5-nitrothiophene-2-carboxamide] as the compound, how does the LC50 (Table 6, MTS) read?
Answer: 160 nM

Question: Which LC50 (Table 6, MTS) does the source give for `CC(C)(C)c1ccc(-n2ncc3c(NC(=O)c4ccc([N+](=O)[O-])s4)nc(OCC(F)(F)C(F)F)nc32)cc1` [Compound 6-59, N-(1-(4-(tert-butyl)phenyl)-6-(2,2,3,3-tetrafluoropropoxy)-1H-pyrazolo[3,4-d]pyrimidin-4-yl)-5-nitrothiophene-2-carboxamide] here?
Answer: 500 nM

Question: `O=C(Nc1nc(-c2ccc(F)cc2)nc2c1cnn2-c1ccc(F)cc1F)c1ccc([N+](=O)[O-])s1` [Compound 7-12] was tested. Which LC50 (Table 7, MTS) did it give?
Answer: 430 nM

Question: `O=C(Nc1nc(-c2ccc(C(F)(F)F)cc2)nc2c1cnn2-c1ccc(OC(F)(F)F)cc1)c1ccc([N+](=O)[O-])s1` [Compound 6-88, 5-nitro-N-(1-(4-(trifluoromethoxy)phenyl)-6-(4-(trifluormethyl)phenyl)-1H-pyrazolo[3,4-d]pyrimidin-4-yl)thiophene-2-carboxamide] was tested. Which LC50 (Table 6, MTS) did it give?
Answer: 420 nM

Question: `O=C(Nc1nc(NS(=O)(=O)c2ccc(Cl)cc2)nc2c1cnn2-c1ccccc1)c1ccc([N+](=O)[O-])s1` [Compound 5-9, N-(6-((4-chlorophenyl)sulfonamido)-1-phenyl-1H-pyrazolo[3,4-d]pyrimidin-4-yl)-5-nitrothiophene-2-carboxamide] was tested. Which LC50 (Table 5, MTS) did it give?
Answer: > 6000 nM

Question: Which LC50 (Table 1, MTS) does the source give for `CC(C)(C)c1ccc(-c2nc(NC(=O)c3ccc([N+](=O)[O-])s3)c3cnn(C(C)(C)C)c3n2)cc1` [Compound 1-25, N-(1-(tert-butyl)-6-(4-(tert-butyl)phenyl)-1H-pyrazolo[3,4,d]pyrimidin-4-yl)-5-nitrothiophene-2-carboxamide] here?
Answer: 4110 nM

Question: `O=C(Nc1nc(-c2cc(Cl)ccc2F)nc2c1cnn2C1CCCCC1)c1ccc([N+](=O)[O-])s1` [Compound 10-47, N-(6-(5-chloro-2-fluorophenyl)-1-cyclohexyl-1H-pyrazolo[3,4-d]pyrimidin-4-yl)-5-nitrothiophene-2-carboxamide] was tested. Which LC50 (Table 10, MTS) did it give?
Answer: 630 nM

Question: `Cc1csc2c(-c3ccc(OC(F)(F)F)cc3)nc(NC(=O)c3ccc([N+](=O)[O-])s3)nc12` [Compound 2-8, N-(7-methyl-4-(4-(trifluoromethoxy)phenyl)thieno[3,2-d]pyrimidin-2-yl)-5-nitrothiophene-2-carboxamide] was tested. Which LC50 (Table 2, MTS) did it give?
Answer: 1710 nM

Question: Which LC50 (Table 6, MTS) does the source give for `CC(C)(C)c1ccc(-n2ncc3c(NC(=O)c4ccc([N+](=O)[O-])s4)nc(-c4nnc(C(C)(C)C)o4)nc32)cc1` [Compound 6-76, N-(6-(5-(tert-butyl)-1,3,4-oxadiazol-2-yl)-1-(4-(tert-butyl)phenyl)-1H-pyrazolo[3,4-d]pyrimidin-4-yl)-5-nitrothiophene-2-carboxamide] here?
Answer: 310 nM

Question: Which LC50 (Table 10, MTS) does the source give for `O=Cc1ccc(-c2nc(NC(=O)c3ccc([N+](=O)[O-])s3)c3cnn(C4CCCCC4)c3n2)cc1` [Compound 10-27, N-(1-cyclohexyl-6-(4-formylphenyl)-1H-pyrazolo[3,4-d]pyrimidin-4-yl)-5-nitrothiophene-2-carboxamide] here?
Answer: 840 nM

Question: `CCOCCOc1ccc(-c2nc(NC(=O)c3ccc([N+](=O)[O-])s3)c3cnn(-c4cccc(F)c4)c3n2)cn1` [Compound 6-95, N-(6-(6-(2-ethoxyethoxy)pyridin-3-yl)-1-(3-fluorophenyl)-1H-pyrazolo[3,4-d]pyrimidin-4-yl)-5-nitrothiophene-2-carboxamide] was tested. Which LC50 (Table 6, MTS) did it give?
Answer: 290 nM

Question: How did the LC50 (Table 8, MTS) turn out when `CC(C)(C)OC(=O)N1CC[C@H](n2ncc3c(NC(=O)c4ccc([N+](=O)[O-])s4)nc(-c4ccc(F)nc4)nc32)C1` [Compound 8-7, tert-butyl (S)-3-(6-(6-fluoropyridin-3-yl)4-(5-nitrothiophene-2-carboxamido)-1H-pyrazolo[3,4-d]pyrimidin-1-yl)pyrrolidine-1-carboxylate] was run?
Answer: 1490 nM

Question: For `COc1ccc(-c2nc(NC(=O)c3ccc([N+](=O)[O-])s3)c3cnn(-c4ccccc4)c3n2)cc1` [Compound 5-36, N-(6-(4-methoxyphenyl)-1-phenyl-1H-pyrazolo[3,4-d]pyrimidin-4-yl)-5-nitrothiophene-2-carboxamide], which LC50 (Table 5, MTS) is on record?
Answer: 600 nM

Question: With `O=C(Nc1nc(-c2ccc3c(c2)OCO3)nc2c1cnn2-c1cccc(F)c1)c1ccc([N+](=O)[O-])s1` [Compound 6-92, N-(6-(benzo[d][1,3]dioxol-5-yl)-1-(3-fluorophenyl)-1H-pyrazolo[3,4-d]pyrimidin-4-yl)-5-nitrothiophene-2-carboxamide] as the compound, how does the LC50 (Table 6, MTS) read?
Answer: 450 nM

Question: For `Cc1csc2c(NC(=O)c3ccc([N+](=O)[O-])s3)nc(-c3cccc(F)c3)nc12` [Compound 4-7, N-(2-(3-fluorophenyl)-7-methylthieno[3,2-d]pyrimidin-4-yl)-5-nitrothiophene-2-carboxamide], which LC50 (Table 4, MTS) is on record?
Answer: 1280 nM

Question: For `CC(C)(C)C(=O)N1CC[C@H](n2ncc3c(NC(=O)c4ccc([N+](=O)[O-])s4)nc(-c4ccc(F)nc4)nc32)C1` [Compound 8-4, (S)—N-(6-(6-fluoropyridin-3-yl)-1-(1-pivaloylpyrrolidin-3-yl)-1H-pyrazolo[3,4-d]pyrimidin-4-yl)-5-nitrothiophene-2-carboxamide], which LC50 (Table 8, MTS) is on record?
Answer: 1490 nM

Question: Which LC50 (Table 6, MTS) does the source give for `CC(C)(C)c1ccc(-n2ncc3c(NC(=O)c4ccc([N+](=O)[O-])s4)nc(-c4ccccc4F)nc32)cc1` [Compound 6-79, N-(1-(4-(tert-butyl)phenyl)-6-(2-fluorophenyl)-1H-pyrazolo[3,4-d]pyrimidin-4-yl)-5-nitrothiophene-2-carboxamide] here?
Answer: 690 nM

Question: `O=C(Nc1nc(-c2ccsc2)nc2c1cnn2-c1ccc(F)cc1)c1ccc([N+](=O)[O-])s1` [Compound 6-107] was tested. Which LC50 (Table 6, MTS) did it give?
Answer: 370 nM

Question: For `O=C(Nc1nc(-c2ccc(Cl)cc2)nc2c1cnn2-c1ccc(Cl)cc1)c1ccc([N+](=O)[O-])s1` [Compound 6-49, N-(1,6-bis(4-chlorophenyl)-1H-pyrazolo[3,4-d]pyrimidin-4-yl)-5-nitrothiophene-2-carboxamide], which LC50 (Table 6, MTS) is on record?
Answer: 170 nM

Question: Which LC50 (Table 5, MTS) does the source give for `CN(C)CCOc1nc(NC(=O)c2ccc([N+](=O)[O-])s2)c2cnn(-c3ccccc3)c2n1` [Compound 5-11, N-(6-(2-(dimethylamino)ethoxy)-1-phenyl-1H-pyrazolo[3,4-d]pyrimidin-4-yl)-5-nitrothiophene-2-carboxamide] here?
Answer: 4130 nM

Question: For `O=C(Nc1nc(-c2ccsc2)nc2c1cnn2-c1cccc(Cl)c1)c1ccc([N+](=O)[O-])s1` [Compound 6-33, N-(1-(3-chlorophenyl)-6-(thiophen-3-yl)-1H-pyrazolo[3,4-d]pyrimidin-4-yl)-5-nitrothiophene-2-carboxamide], which LC50 (Table 6, MTS) is on record?
Answer: 290 nM

Question: For `CCOC(=O)[C@@H]1CCCN1c1nc(NC(=O)c2ccc([N+](=O)[O-])s2)c2cnn(-c3ccc(F)cc3)c2n1` [Compound 6-101, ethyl (1-(4-fluorophenyl)-4-(5-nitrothiophene-2-carboxamido)-1H-pyrazolo[3,4-d]pyrimidin-6-yl)-L-prolinate], which LC50 (Table 6, MTS) is on record?
Answer: > 1250 nM

Question: How did the LC50 (Table 8, MTS) turn out when `O=C(Nc1nc(-c2ccc(Cl)cc2)nc2c1cnn2C1CCCC1)c1ccc([N+](=O)[O-])s1` [Compound 8-9, N-(6-(4-chlorophenyl)-1-cyclopentyl-1H-pyrazolo[3,4-d]pyrimidin-4-yl)-5-nitrothiophene-2-carboxamide] was run?
Answer: 940 nM
